Counter-ions that a name gives are not always drawn.
Tests used:
[1] = Rheological characterization of drug loaded 9% SELP-815K; type: physicochemical; conditions: SELP solution with dox HCl, as drug powder or DMSO solution, 25 mg/mL
Protocol: (§1) SELP-815K formulations were prepared at 12% w/w in 1× phosphate buffered saline (PBS). Powder drugs were milled for 12 hours to reduce crystal size and variability using a custom built ball mill. Milled samples were inspected microscopically to verify homogeneity. Two methods of drug incorporation were investigated. […] Drug loading concentration was chosen based on manufacturer specified loading of doxorubicin in DEBs. The same loading was used for sorafenib.
(§2) For dual drugs, drug loading was 12.5 mg/mL for each drug, for a total drug loading of 25 mg/mL. Samples were chilled on ice until tested. Samples incorporating powder drug in 12% w/w SELP-815K were prepared without dilution; however, the volume addition of the powdered drug was not considered in the calculation of the SELP concentration. Samples with powdered drug were tested at 25 and 50 mg/mL for single drug loaded samples and 25 mg/mL per drug for dual drug loaded samples.
An AR 550 stress-controlled rheometer from TA Instruments (New Castle, DE) was used for rheological testing. A cone-and-plate configuration equipped with a stainless steel 20 mm diameter, 4 degree geometry was used. An oscillation procedure with a temperature ramp from 18° C. to 37° C. […]

[2] = In vitro drug release from 9% SELP-815K gels (RP-HPLC); type: physicochemical; conditions: for cumulative release of sorafenib: 9% SELP-815K, 14-day release
Protocol: as §1, §2
(§3) The drug loaded SELP solutions were drawn into 0.5 cd insulin syringes and incubated overnight at 37° C. followed by cutting into gel disks as previously described. Weights were recorded. Individual gels were placed into 8 dram glass vials, to which 25 mL of release media consisting of 1×PBS, 1% SDS was added. The elution volume was chosen to ensure sink conditions and complete dissolution of both drugs, if all drug eluted immediately.
At predetermined time points of 1 hour, 3 hours, 6 hours, 12 hours, 1 day, 3 days, 5 days, 7 days, 10 days, 14 days, and 20 and 30 days for extended-release studies, a sample volume was removed for analysis and replaced with fresh media. Vials were sealed and maintained in a shaking incubator at 37° C., 120 rpm. The 9% SELP-815K gels underwent release testing for 14 days. The 12% SELP-815K gels were tested for 30 days.
(§4) Drug content in the release media was detected by reverse phase high performance liquid chromatography (RP-HPLC; Agilent Technologies, Santa Clara, CA) using a RPC18 X-Terra column (4.6×250 mm, 5 µm particle size; Waters, Milford, MA) and a guard column of the same packing material. The elution gradient at time zero began with mobile phase of 40% 20 mM ammonium acetate and 60% acetonitrile (CAN), which increased to 72% CAN over 9 minutes at a flow rate of 1 mL/min. Percent cumulative release was calculated using the experimental drug loading per disk based on the pre-release weight.

[3] = system: rat hepatoma line McA-RH7777; test: WST-8 cell viability assay, single agent in vitro toxicity; type: cell-based; conditions: 72 hours of incubation, media containing 0.5% DMSO, read-out: IC50 Values of Each Drug per HCC Cell Line
Protocol: (§5) Growth inhibition by the base drugs used in this study was evaluated on three different hepatoma cell lines—two human HCC lines and one rat cell line—using a 2-(2-methoxy-4-nitrophenyl)-3-(4-nitrophenyl)-5-(2,4-disulfophenyl)-2H-tetrazolium monosodium salt (WST-8) cell viability assay (Dojindo Molecular Technologies, Inc., Rockville, MD). Human cell lines Hep3B and HepG2 were obtained from ATCC (Manassas, VA) and cultured in EMEM cell culture medium (ATCC) supplemented with 10% fetal bovine serum (FBS). The rat hepatoma line McA-RH7777 was generously donated by the Larson Lab (Northwestern University, IL). This line was cultured in DMEM cell culture medium (ATCC) supplemented with 10% FBS. All lines were grown at 37° C. in a humidified atmosphere of 5% CO2.
(§6) To prevent precipitation of the drugs, media containing 0.5% DMSO was used throughout all the studies. Doubling times of the cell lines were similar; therefore, cells were plated at the same density of 7,000 cells per well in 96-well plates for 24 hours. Media was removed, cells were washed with PBS, and treatment was applied. Drug concentrations were varied to include data points ranging from non-toxic to highly toxic. Following 72 hours of incubation, the media was removed and cell viability was quantified using the WST-8 assay with a SpectraMax M2 spectrophotometer (Molecular Devices, Sunnyvale, CA).
(§7) Each experiment was performed with N=6, assessing viability at 10 different drug concentrations. Relative cell viability was calculated by normalizing against the UV absorbance of untreated cells. GraphPad Prism was used to plot relative cell viability as a function of log drug concentration with a non-linear least-squares regression analysis and calculation of IC50 values.

[4] = system: Hep3B; test: as above; type: cell-based; conditions: Homo sapiens, 72 hours of incubation, media containing 0.5% DMSO, read-out: IC50 Values of Each Drug per HCC Cell Line
Protocol: as §5, §6, §7

[5] = system: human HCC HepG2 cells; test: as above; type: cell-based; conditions: 72 hours of incubation, media containing 0.5% DMSO, read-out: IC50 Values of Each Drug per HCC Cell Line
Protocol: as §5, §6, §7

[6] = In vitro drug release from 12% SELP-815K gels (RP-HPLC); type: physicochemical; conditions: day 30
Protocol: as §2
as §3, with “immediately. […]” for “immediately.”
as §4, with “The elution gradient at time zero began with mobile phase of 40% 20 mM ammonium acetate and 60% acetonitrile (CAN), which increased to 72% CAN over 9 minutes at a flow rate of 1 mL/min.” left out

| SMILES | viscosity relative to the SELP control with no drug [1] | loaded doxorubicin released in the first day ([2]; 9% SELP-815K gels, base form, in DMSO or powder, first day) | loaded doxorubicin released by day 14 ([2]; 9% SELP-815K gels, base form, day 14) | IC50 [3] | IC50 [4] | IC50 [5] | total drug content of doxorubicin released (cumulative release) ([6]; 25 mg/mL single drug loaded and dual drug loaded gels) | cumulative release of doxorubicin ([6]; 50 mg/mL single drug loaded gel) | cumulative release of sorafenib ([2]; DMSO dissolved drug, dual drug loaded gels (12.5 mg/mL each drug)) | cumulative release of sorafenib ([2]; DMSO dissolved drug, single drug loaded gel (25 mg/mL)) | cumulative release of sorafenib ([2]; powder drug, dual drug loaded gel (12.5 mg/mL each drug)) | cumulative release of sorafenib ([2]; powder drug, single drug loaded gel (25 mg/mL)) |
| --- | --- | --- | --- | --- | --- | --- | --- | --- | --- | --- | --- | --- |
| COc1cccc2c1C(=O)c1c(O)c3c(c(O)c1C2=O)C[C@@](O)(C(=O)CO)C[C@@H]3O[C@H]1C[C@H](N)[C@H](O)[C@H](C)O1 [dox HCl, doxorubicin hydrochloride] | more than 2 fold | – | – | – | – | – | – | – | – | – | – | – |
| COc1cccc2c1C(=O)c1c(O)c3c(c(O)c1C2=O)C[C@@](O)(C(=O)CO)C[C@@H]3O[C@H]1C[C@H](N)[C@H](O)[C@H](C)O1 [Doxorubicin] | – | More than 50% | nearly all of the loaded drug released | 0.48 ± 0.32 µM | 0.29 ± 0.04 µM | 0.62 ± 0.41 µM | 30% | 15% | – | – | – | – |
| CNC(=O)c1cc(Oc2ccc(NC(=O)Nc3ccc(Cl)c(C(F)(F)F)c3)cc2)ccn1 [Sorafenib] | – | – | – | 6.88 ± 0.83 µM | 3.47 ± 0.2 µM | 1.72 ± 0.7 µM | – | – | 95% | less than 60% | 22% | 8.7% |
